{"source": "ChEMBL document CHEMBL1201862", "about": "“PubChem BioAssay data set” (2004)", "key": {"[1]": {"molecular_target": "Cytochrome P450 2C19 (Homo sapiens, UniProt P33261)", "sequence (P33261 whole entry)": "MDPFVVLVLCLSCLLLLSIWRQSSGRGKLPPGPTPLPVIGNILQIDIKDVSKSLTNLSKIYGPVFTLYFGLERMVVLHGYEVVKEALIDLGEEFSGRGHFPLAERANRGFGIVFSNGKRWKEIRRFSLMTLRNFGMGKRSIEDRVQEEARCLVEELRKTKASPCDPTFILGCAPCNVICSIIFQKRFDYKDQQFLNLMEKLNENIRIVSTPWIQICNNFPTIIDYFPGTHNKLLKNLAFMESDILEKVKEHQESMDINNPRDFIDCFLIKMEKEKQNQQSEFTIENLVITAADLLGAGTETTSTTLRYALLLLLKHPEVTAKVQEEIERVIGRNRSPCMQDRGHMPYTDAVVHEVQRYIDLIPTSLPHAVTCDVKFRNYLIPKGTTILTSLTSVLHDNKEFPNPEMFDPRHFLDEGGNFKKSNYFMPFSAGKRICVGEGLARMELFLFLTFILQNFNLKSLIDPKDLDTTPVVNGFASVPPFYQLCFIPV", "assay": "Cytochrome panel assay with activity outcomes. Panel member name: p450-cyp2c19 Compounds with AC50 equal or less than 10 uM are considered active", "type": "functional"}, "[2]": {"assay": "inhibitors of firefly luciferase expression or activity, dose response, H4 neuroglioma cells, luminescence (AID 1990)", "type": "functional, cell-based"}, "[3]": {"assay": "Luminescence Cell-Based Dose Response HTS to Identify Inhibitors of 5'UTR Stem-Loop Driven Prion Protein mRNA Translation in H4 Neuroglioblastoma Cells. [Related pubchem assays: 1827 (Project Summary), 1813 (Primary HTS)]", "type": "functional"}, "[4]": {"assay": "inhibitors of SNCA 5'UTR-driven reporter translation, confirmation, H4 neuroglioma cells, luminescence (AID 1988)", "type": "functional, cell-based"}, "[5]": {"molecular_target": "T1, Streptokinase A (Streptococcus pyogenes serotype M1, UniProt P10520)", "T1 sequence (P10520 whole entry)": "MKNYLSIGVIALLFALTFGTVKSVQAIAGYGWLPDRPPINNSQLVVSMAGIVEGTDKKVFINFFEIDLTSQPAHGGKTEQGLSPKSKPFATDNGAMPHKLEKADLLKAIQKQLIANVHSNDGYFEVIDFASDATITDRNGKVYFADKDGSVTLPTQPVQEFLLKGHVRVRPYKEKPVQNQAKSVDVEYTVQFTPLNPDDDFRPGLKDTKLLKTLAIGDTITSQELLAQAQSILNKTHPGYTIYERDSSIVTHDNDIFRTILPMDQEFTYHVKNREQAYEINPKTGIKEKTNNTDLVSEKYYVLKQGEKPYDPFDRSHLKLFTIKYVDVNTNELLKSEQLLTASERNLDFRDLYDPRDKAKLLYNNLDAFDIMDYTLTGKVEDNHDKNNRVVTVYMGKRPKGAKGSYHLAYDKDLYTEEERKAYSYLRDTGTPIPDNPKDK", "assay": "S. pyogenes streptokinase expression inhibitors, potency, dose response, plasminogen activation absorbance, OD405 (AID 1914);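 also: secreted streptokinase activity via plasminogen activation per viability signal from cell pellet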", "type": "functional, Streptococcus pyogenes M1 GAS"}, "[6]": {"system": "Streptococcus sp. 'group A'", "assay": "growth inhibition of control SK(-) GAS strain, dose response, counter-screen for streptokinase expression inhibitor project, luminescence, kanamycin, BacTiterGlo, confirmation (AID 1900)", "type": "functional, organism-based"}, "[7]": {"system": "Streptococcus", "assay": "Group A Streptococcus viability loss, dose response, counter-screen for streptokinase expression inhibitor project, luminescence, BacTiterGlo (AID 1915);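 also: potency for reduction of bacterial viability or growth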", "type": "functional, organism-based"}, "[8]": {"assay": "Luminescence Cell-Based Dose Retest to Confirm Inhibitors of Cancer Stem Cells. [Related pubchem assays (depositor defined):AID2717, AID2721]", "type": "functional", "conditions": "Homo sapiens"}, "[9]": {"assay": "cytotoxicity toward NIH3T3 fibroblasts, dose response, counter-screen, cell-based, ATP luminescence, mouse fibroblasts (AID 2010);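 also: cells exposed to compound for about 90 hours before reading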", "type": "functional"}, "[10]": {"assay": "inhibitors of intracellular T. cruzi replication, confirmation, NIH3T3 host cells, beta-gal luminescence (AID 2044);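 also: luminescent beta-galactosidase reporter signal from transgenic T. cruzi replicating inside host cells; inhibitors lower the luminescence signal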", "type": "functional, cell-based"}, "[11]": {"molecular_target": "T2, Rac GTPase-activating protein 1 (Homo sapiens, UniProt Q9H0H5)", "T2 sequence (Q9H0H5 whole entry)": "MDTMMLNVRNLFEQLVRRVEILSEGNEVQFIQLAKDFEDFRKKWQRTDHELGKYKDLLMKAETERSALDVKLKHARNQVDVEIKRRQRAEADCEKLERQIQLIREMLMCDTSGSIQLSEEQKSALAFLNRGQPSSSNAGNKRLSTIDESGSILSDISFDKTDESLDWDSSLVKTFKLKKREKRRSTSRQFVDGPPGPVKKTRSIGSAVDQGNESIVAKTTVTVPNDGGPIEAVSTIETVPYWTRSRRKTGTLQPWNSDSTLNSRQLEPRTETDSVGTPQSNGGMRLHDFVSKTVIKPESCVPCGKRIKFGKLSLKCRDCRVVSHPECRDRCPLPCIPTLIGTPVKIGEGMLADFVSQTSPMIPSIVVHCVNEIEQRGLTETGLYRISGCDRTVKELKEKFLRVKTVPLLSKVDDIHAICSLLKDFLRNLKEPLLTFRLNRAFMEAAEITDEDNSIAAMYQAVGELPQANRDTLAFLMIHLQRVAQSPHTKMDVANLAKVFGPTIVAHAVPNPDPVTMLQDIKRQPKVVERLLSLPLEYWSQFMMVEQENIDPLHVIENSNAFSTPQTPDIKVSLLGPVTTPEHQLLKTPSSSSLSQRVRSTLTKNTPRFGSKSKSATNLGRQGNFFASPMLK", "assay": "MgcRacGAP GTPase-activating activity inhibitors, confirmation, biochemical, ADP Hunter fluorescence, primary and confirmatory (AID 624330)", "type": "functional"}, "[12]": {"assay": "Luminescence Cell-Based Dose Response HTS to Identify Activators of Luciferase Translation or Activity in H4 […] Cells. [Related pubchem assays: 1829 (Project Summary), 1814 (Primary HTS)]", "type": "functional"}, "[13]": {"system": "H4", "assay": "Luminescence Cell-Based Dose Response HTS to Identify Activators of 5'UTR Stem-Loop Driven Prion Protein mRNA Translation in H4 Neuroglioblastoma Cells. [Related pubchem assays: 1829 (Project Summary), 1814 (Primary HTS)]", "type": "functional", "conditions": "Homo sapiens"}, "[14]": {"assay": "growth suppression of beta-catenin-knockout colon cells, dose response, cell-based, HCT116, human colon tumor (AID 1045);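 also: HCT116 colon tumor cells with beta catenin knocked out; cells exposed to compound for 60 hours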", "type": "functional"}, "[15]": {"assay": "growth suppression of PTEN-null colon cells, dose response, cell-based, HCT116 PTEN knockout (AID 1047);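 also: HCT116 colon tumor cells with PTEN knocked out; cells exposed to compound for 60 hours before readout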", "type": "functional"}}, "note": "Calls of active or inactive are those of the source."}
{"compound": "O=C(O)Cc1sc(-c2ccc(Cl)cc2)nc1-c1ccccc1", "values": [{"measurement": "AC50", "setting": "[1]; read-out: AC50", "value": "14.1 µM (inconclusive)"}]}
{"compound": "CCOc1ccc(-n2c([S-])c(C(=O)Nc3ccc(S(=O)(=O)N4CCOCC4)cc3)[n+]3cc(C(N)=O)ccc23)cc1", "values": [{"measurement": "EC50", "setting": "[2]", "value": "24.1 µM (active)"}, {"measurement": "EC50", "setting": "[3]", "value": "> 120 µM (not active)"}, {"measurement": "EC50", "setting": "[4]", "value": "17.5 µM (active)"}]}
{"compound": "CC(C)CNCCc1ccccn1", "values": [{"measurement": "AC50", "setting": "[1]", "value": "inconclusive"}]}
{"compound": "COc1ccccc1NC(=O)CSc1nnc(COc2ccc(Cl)cc2)n1Cc1ccco1", "values": [{"measurement": "EC50", "setting": "[2]", "value": "> 120 µM (not active)"}, {"measurement": "EC50", "setting": "[3]", "value": "> 120 µM (not active)"}, {"measurement": "EC50", "setting": "[4]", "value": "48 µM (active)"}]}
{"compound": "OCCCCC#Cc1c(-c2ccsc2)sc2ccccc12", "values": [{"measurement": "EC50", "setting": "[5]", "value": "> 150 µM (not active)"}, {"measurement": "EC50", "setting": "[6]", "value": "6.64 µM (active)"}, {"measurement": "EC50", "setting": "[7]", "value": "8.45 µM (active)"}, {"measurement": "AC50", "setting": "[8]", "value": "3.15 µM (active)"}]}
{"compound": "O=C(c1cnn2c(C(F)(F)F)cc(-c3ccccc3)nc12)N1CCCCC1c1cccnc1", "note": "(stereo unspecified)", "values": [{"measurement": "EC50", "setting": "[2]", "value": "> 120 µM (not active)"}, {"measurement": "EC50", "setting": "[9]", "value": "> 60 µM (not active)"}, {"measurement": "EC50", "setting": "[10]", "value": "0.506 µM (active)"}, {"measurement": "EC50", "setting": "[3]", "value": "75.7 µM (active)"}, {"measurement": "EC50", "setting": "[4]", "value": "> 120 µM (not active)"}]}
{"compound": "Cc1cc(-c2nnc(S)n2/N=C/c2ccc(Br)s2)[nH]n1", "values": [{"measurement": "IC50", "setting": "[11]", "value": "91.6 µM (active)"}]}
{"compound": "COc1cccc(CN2CCC(C(=O)N3CCC(C)CC3)CC2)c1", "values": [{"measurement": "IC50", "setting": "[11]", "value": "162 µM (active)"}]}
{"compound": "CCOC(=O)c1c(NC(=O)c2c(N)n(CCCOC)c3nc4ccccc4nc23)sc2c1CCCC2", "values": [{"measurement": "EC50", "setting": "[9]", "value": "> 60 µM (not active)"}, {"measurement": "EC50", "setting": "[10]", "value": "2.74 µM (active)"}, {"measurement": "EC50", "setting": "[5]", "value": "> 150 µM (not active)"}, {"measurement": "EC50", "setting": "[6]", "value": "4.29 µM (active)"}, {"measurement": "EC50", "setting": "[7]", "value": "25.1 µM (active)"}]}
{"compound": "CCC(C)c1ccccc1NS(=O)(=O)c1cnn(CC)c1", "note": "(stereo unspecified)", "values": [{"measurement": "EC50", "setting": "[5]", "value": "> 150 µM (not active)"}, {"measurement": "EC50", "setting": "[6]", "value": "> 150 µM (not active)"}, {"measurement": "EC50", "setting": "[7]", "value": "> 150 µM (not active)"}]}
{"compound": "Cc1ccc(NCCCCO)cc1C", "values": [{"measurement": "IC50", "setting": "[11]", "value": "35.9 µM (active)"}]}
{"compound": "CC(OC(=O)CC1CCCC1)C(=O)Nc1ccc(S(N)(=O)=O)cc1", "note": "(stereo unspecified)", "values": [{"measurement": "EC50", "setting": "[5]", "value": "> 150 µM (not active)"}, {"measurement": "EC50", "setting": "[6]", "value": "> 150 µM (not active)"}, {"measurement": "EC50", "setting": "[7]", "value": "> 150 µM (not active)"}]}
{"compound": "Cn1cccc1CNC(=O)Nc1ccc(Cl)c(Cl)c1", "values": [{"measurement": "EC50", "setting": "[12]", "value": "1.66 µM (active)"}, {"measurement": "EC50", "setting": "[13]", "value": "> 120 µM (not active)"}]}
{"compound": "CCN1CCN(CC(=O)Nc2cc(C(F)(F)F)ccc2OCCOC)CC1", "values": [{"measurement": "IC50", "setting": "[11]", "value": "48.5 µM (active)"}]}
{"compound": "Cc1cccc(C)c1OCc1nc2ccccc2c(=O)n1/N=C/c1c[nH]c2ccccc12", "values": [{"measurement": "EC50", "setting": "[14]", "value": "24.7 µM (active)"}, {"measurement": "EC50", "setting": "[15]", "value": "23.6 µM (active)"}, {"measurement": "EC50", "setting": "[9]", "value": "> 30 µM (not active)"}, {"measurement": "EC50", "setting": "[10]", "value": "1.14 µM (active)"}]}
{"compound": "COc1cc(/C=N/NC(=O)c2ccccc2NS(=O)(=O)c2cccs2)ccc1O", "values": [{"measurement": "IC50", "setting": "[11]", "value": "74.5 µM (active)"}]}
{"compound": "CCCn1cnc2cc(NCc3cccs3)ccc21", "values": [{"measurement": "EC50", "setting": "[12]", "value": "11.8 µM (active)"}, {"measurement": "EC50", "setting": "[13]", "value": "13.4 µM (active)"}]}
{"compound": "O=S(=O)(Nc1cc(O)nc(SCc2ccccc2Cl)n1)c1ccccc1", "values": [{"measurement": "EC50", "setting": "[2]", "value": "> 120 µM (not active)"}, {"measurement": "EC50", "setting": "[3]", "value": "> 120 µM (not active)"}, {"measurement": "EC50", "setting": "[4]", "value": "12.8 µM (active)"}]}
{"compound": "COCCn1c(=O)c(CCc2ccccc2)nc2cnc(N3CCN(C)CC3)nc21", "values": [{"measurement": "AC50", "setting": "[1]; read-out: AC50", "value": "10 µM (inconclusive)"}]}
{"compound": "C=CCn1c(SCC(=O)Nc2ccc(O)cc2)nc2sc(CC)cc2c1=O", "values": [{"measurement": "IC50", "setting": "[11]", "value": "54.5 µM (active)"}]}
{"compound": "Cc1cccn2c(O)c(C(=O)NC3CC(C)CC(C)(C)C3)c(=O)nc12", "note": "(stereo unspecified)", "values": [{"measurement": "EC50", "setting": "[2]", "value": "13.1 µM (active)"}, {"measurement": "EC50", "setting": "[3]", "value": "2.59 µM (active)"}, {"measurement": "EC50", "setting": "[4]", "value": "16.3 µM (active)"}]}
{"compound": "CCCCC(=O)Nc1nc(C)c(-c2csc(Nc3cc(OC)ccc3OC)n2)s1", "values": [{"measurement": "EC50", "setting": "[2]", "value": "12.2 µM (active)"}, {"measurement": "EC50", "setting": "[3]", "value": "18.2 µM (active)"}, {"measurement": "EC50", "setting": "[4]", "value": "7.93 µM (active)"}, {"measurement": "AC50", "setting": "[8]", "value": "1.35 µM (active)"}]}
{"compound": "N#CC1=C(N)OC2=C(CCc3ccccc32)C1c1ccccc1Cl", "note": "(stereo unspecified)", "values": [{"measurement": "EC50", "setting": "[5]", "value": "11.9 µM (active)"}, {"measurement": "EC50", "setting": "[6]", "value": "4.61 µM (active)"}, {"measurement": "EC50", "setting": "[7]", "value": "18.9 µM (active)"}]}
